Experimental data published in publication PMC3195871 (Biochemical and biophysical research communications, 2011).

Biological target: T1, ArathEULS3 (Arabidopsis thaliana, UniProt Q945P1)
T1 sequence (Q945P1 2-317): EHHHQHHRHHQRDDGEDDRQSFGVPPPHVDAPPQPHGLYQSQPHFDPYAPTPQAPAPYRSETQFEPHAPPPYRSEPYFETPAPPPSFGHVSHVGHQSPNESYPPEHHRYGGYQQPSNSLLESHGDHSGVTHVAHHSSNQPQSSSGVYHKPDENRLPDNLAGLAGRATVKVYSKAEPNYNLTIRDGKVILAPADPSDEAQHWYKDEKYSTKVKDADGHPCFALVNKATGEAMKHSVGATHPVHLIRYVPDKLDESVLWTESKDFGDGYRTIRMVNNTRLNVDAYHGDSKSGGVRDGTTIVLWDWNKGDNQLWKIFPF
Assay: glycan microarray v4.[…], fluorescence
Format: binding
Conditions: glycan immobilised through spacer; relative to glycan with highest signal

Molecule | %RFU ^* / ArathEUL
CC(=O)N[C@H]1[C@H](OCCOCCOCCOCCOCCOCCN)O[C@H](CO)[C@@H](O[C@@H]2O[C@H](CO)[C@H](O)[C@H](O)[C@H]2O)[C@@H]1O [Galβ1-4GlcNAcβ-(OCH2CH2)6NH2] | 15,6%
CC(=O)N[C@H]1[C@H](O[C@H]2[C@@H](O)[C@@H](CO)O[C@@H](O[C@H]3[C@H](O[C@@H]4O[C@@H](C)[C@@H](O)[C@@H](O)[C@@H]4O)[C@@H](NC(C)=O)[C@H](O[C@H]4[C@@H](O)[C@@H](CO)O[C@@H](O[C@H]5[C@H](O[C@@H]6O[C@@H](C)[C@@H](O)[C@@H](O)[C@@H]6O)[C@@H](NC(C)=O)[C@H](OCCN)O[C@@H]5CO)[C@@H]4O)O[C@@H]3CO)[C@@H]2O)O[C@H](CO)[C@@H](O[C@@H]2O[C@H](CO)[C@H](O[C@H]3O[C@H](CO)[C@@H](O)[C@H](O)[C@H]3NC(C)=O)[C@H](O)[C@H]2O)[C@@H]1O [GlcNAcα1-4Galβ1-4GlcNAcβ1-3Galβ1-4(Fucα1-3)GlcNAcβ1-3Galβ1-4(Fucα1-3)GlcNAcβ-Sp0] | 37,2%
CC(=O)N[C@H]1[C@H](O[C@H]2[C@@H](O)[C@@H](CO)O[C@H](OCCCN)[C@@H]2NC(C)=O)O[C@H](CO)[C@@H](O)[C@@H]1O [GlcNAcβ1-3GalNAcα-Sp8] | 37,0%
CC(=O)N[C@H]1[C@H](OCCN)O[C@H](CO)[C@@H](O[C@@H]2O[C@H](CO)[C@H](O)[C@H](O[C@]3(C(=O)O)C[C@H](O)[C@@H](NC(C)=O)[C@H]([C@H](O)[C@H](O)CO)O3)[C@H]2O)[C@@H]1O[C@@H]1O[C@@H](C)[C@@H](O)[C@@H](O)[C@@H]1O [Neu5Acα2-3Galβ1-4(Fucα1-3)GlcNAcβ-Sp0] | 46,6%
Fucα1-2Galβ1-4(Fucα1-3)GlcNAcβ1-2Manα1-6(Fucα1-2Galβ1-4(Fucα1-3)GlcNAcβ1-2Manα1-3)Manβ1-4GlcNAcβ1-4(Fucα1-6)GlcNAcβ-6AA | 18,9%
Fucα1-2Galβ1-4(Fucα1-3)GlcNAcβ1-3GalNAcα-Sp14 | 100,0%
GalNAcα1-3(Fucα1-2)Galβ1-4(Fucα1-3)GlcNAcβ1-3GalNAc-Sp14 | 73,6%
Galα1-3Galβ1-3GlcNAcβ1-2Manα1-3(Galα1-3Galβ1-3GlcNAcβ1-2Manα1-6)Manβ1-4GlcNAcβ1-4GlcNAc-Sp19 | 46,6%
Galβ1-4(Fucα1-3)GlcNAcβ1-4Galβ1-4(Fucα1-3)GlcNAcβ1-4Galβ1-4(Fucα1-3)GlcNAcβ-Sp0 | 22,7%
Galβ1-4(Fucα1-3)GlcNAcβ1-6GalNAc-Sp14 | 8,4%
Galβ1-4GlcNAcβ1-2Manα1-3(Galβ1-4GlcNAcβ1-2Manα1-6)Manβ1-4GlcNAcβ1-4GlcNAcβ-Sp12 | 9,1%
Galβ1-4GlcNAcβ1-4(Galβ1-4GlcNAcβ1-2)Manα1-3(GlcNAcβ1-4)(Galβ1-4GlcNAcβ1-6(Galβ1-4-GlcNAcβ1-2)Manα1-6)Manβ1-4GlcNAcβ1-4GlcNAc-Sp21 | 67,5%
Neu5Acα2-3-Galβ1-3(Galβ1-4(Fucα1-3)GlcNAcβ1-6)GalNAc-Sp14 | 14,8%
